Patent US20210255193A1, “LYSINE REACTIVE PROBES AND USES THEREOF” (The Scripps Research Institute, priority 2017, published 2021)

target: T1, EEF1A1 Elongation factor 1-alpha 1 (Homo sapiens, UniProt P68104); assay: competitive isoTOP-ABPP; assay type: binding; settings: 50 uM, 231 sol, in vitro
T1 construct: isoTOP-ABPP experiments performed in cell lysates (in vitro); endogenous in cells; host or cells: soluble proteome of human cancer cell lines (MDA-MB-231, Ramos, Jurkat)
T1 sequence (P68104 1-462): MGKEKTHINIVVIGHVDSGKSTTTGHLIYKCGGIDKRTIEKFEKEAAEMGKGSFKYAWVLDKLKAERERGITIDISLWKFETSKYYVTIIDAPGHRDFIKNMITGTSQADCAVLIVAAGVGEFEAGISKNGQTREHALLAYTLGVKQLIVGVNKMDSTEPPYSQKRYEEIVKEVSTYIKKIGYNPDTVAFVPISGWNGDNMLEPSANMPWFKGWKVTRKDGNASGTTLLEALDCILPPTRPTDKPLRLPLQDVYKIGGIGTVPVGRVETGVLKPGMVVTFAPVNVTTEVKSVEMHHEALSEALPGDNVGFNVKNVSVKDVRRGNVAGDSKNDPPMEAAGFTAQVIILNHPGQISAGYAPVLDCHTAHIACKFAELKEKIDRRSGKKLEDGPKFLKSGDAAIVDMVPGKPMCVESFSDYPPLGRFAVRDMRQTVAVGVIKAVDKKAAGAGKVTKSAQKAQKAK
Method in brief: (§1)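 Readout: isotopic light/heavy MS1 peak-area ratio (R, DMSO heavy over compound light), median across peptides sharing a modified lysine. Lysate received fragment (activated esters 50 μM, guanidinylating agents 100 μM final) or DMSO, then 0.1 mM STP-alkyne probe for 1 h at ambient temperature.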

Q: Which “isoTOP-ABPP reactivity ratio at lysine P68104_K84” value does the source give for O=C(CCc1cn(-c2ccccc2)nc1-c1ccccc1)Oc1ccc([N+](=O)[O-])cc1[N+](=O)[O-] [fragment 29, 2,4-Dinitrophenyl 3-(1,3-diphenyl-1H-pyrazol-4-yl)propanoate] here?
A: Its value is 20.0.

Q: For O=C(Oc1ccc([N+](=O)[O-])cc1[N+](=O)[O-])C(c1ccccc1)c1ccccc1 [fragment 30, 2,4-Dinitrophenyl 2,2-diphenylacetate], which “isoTOP-ABPP reactivity ratio at lysine P68104_K84” value is on record?
A: The value was 0.5.

Q: How did the “isoTOP-ABPP reactivity ratio at lysine P68104_K84” value turn out when O=C(Oc1ccc([N+](=O)[O-])cc1[N+](=O)[O-])c1cc(C(F)(F)F)cc(C(F)(F)F)c1 [fragment 31, 2,4-Dinitrophenyl 3,5-bis(trifluoromethyl)benzoate] was run?
A: The value was 0.4.

Q: For Cn1cc(CC(=O)Oc2ccc([N+](=O)[O-])cc2[N+](=O)[O-])c2ccccc21 [fragment 32, 2,4-Dinitrophenyl 2-(1-methyl-1H-indol-3-yl)acetate], which “isoTOP-ABPP reactivity ratio at lysine P68104_K84” value is on record?
A: The value was 0.4.

same assay, conditions: 50 uM, in vitro, sol, 231

Q: For O=C(CCc1coc2cc(F)ccc2c1=O)Oc1ccc([N+](=O)[O-])cc1[N+](=O)[O-] [fragment 36, 2,4-Dinitrophenyl 3-(7-fluoro-4-oxo-4H-chromen-3-yl)propanoate], which “isoTOP-ABPP ratio (R) at liganded lysine P68104_K84” value is on record?
A: Its value is 0.7.

Q: For O=C(Oc1ccc([N+](=O)[O-])cc1[N+](=O)[O-])c1ccc(-c2ccccc2)cc1 [fragment 37, 2,4-Dinitrophenyl [1,1′-biphenyl]-4-carboxylate], which “isoTOP-ABPP ratio (R) at liganded lysine P68104_K84” value is on record?
A: Its value is 20.0.

Q: Which “isoTOP-ABPP ratio (R) at liganded lysine P68104_K84” value does the source give for CC(=O)Oc1ccc([N+](=O)[O-])cc1[N+](=O)[O-] [fragment 43, 2,4-Dinitrophenyl acetate] here?
A: The value was 0.7.

same assay, conditions: 100 uM_231_sol_in vitro

Q: How did the “isoTOP-ABPP ratio, lysine P68104_K84” value turn out when COC(=O)NC(=NC(=O)OCC1c2ccccc2-c2ccccc21)n1cccn1 [fragment 49, N-Methoxycarbonyl-N′-9-fluorenylmethoxycarbonyl-pyrazole-1-carboxamidine] was run?
A: Its value is 1.2.

Q: Which “isoTOP-ABPP ratio, lysine P68104_K84” value does the source give for CC(C)(C)OC(=O)N=C(NC(=O)OC(C)(C)C)n1cccn1 [fragment 50, reference compound] here?
A: Its value is 1.3.

target: T2, RTN3 Reticulon-3 (Homo sapiens, UniProt O95197); assay: competitive isoTOP-ABPP; assay type: binding; settings: 50 uM, 231 sol, in vitro
T2 construct: isoTOP-ABPP experiments performed in cell lysates (in vitro); endogenous in cells; host or cells: MDA-MB-231 soluble lysate
T2 sequence (O95197 1-1032): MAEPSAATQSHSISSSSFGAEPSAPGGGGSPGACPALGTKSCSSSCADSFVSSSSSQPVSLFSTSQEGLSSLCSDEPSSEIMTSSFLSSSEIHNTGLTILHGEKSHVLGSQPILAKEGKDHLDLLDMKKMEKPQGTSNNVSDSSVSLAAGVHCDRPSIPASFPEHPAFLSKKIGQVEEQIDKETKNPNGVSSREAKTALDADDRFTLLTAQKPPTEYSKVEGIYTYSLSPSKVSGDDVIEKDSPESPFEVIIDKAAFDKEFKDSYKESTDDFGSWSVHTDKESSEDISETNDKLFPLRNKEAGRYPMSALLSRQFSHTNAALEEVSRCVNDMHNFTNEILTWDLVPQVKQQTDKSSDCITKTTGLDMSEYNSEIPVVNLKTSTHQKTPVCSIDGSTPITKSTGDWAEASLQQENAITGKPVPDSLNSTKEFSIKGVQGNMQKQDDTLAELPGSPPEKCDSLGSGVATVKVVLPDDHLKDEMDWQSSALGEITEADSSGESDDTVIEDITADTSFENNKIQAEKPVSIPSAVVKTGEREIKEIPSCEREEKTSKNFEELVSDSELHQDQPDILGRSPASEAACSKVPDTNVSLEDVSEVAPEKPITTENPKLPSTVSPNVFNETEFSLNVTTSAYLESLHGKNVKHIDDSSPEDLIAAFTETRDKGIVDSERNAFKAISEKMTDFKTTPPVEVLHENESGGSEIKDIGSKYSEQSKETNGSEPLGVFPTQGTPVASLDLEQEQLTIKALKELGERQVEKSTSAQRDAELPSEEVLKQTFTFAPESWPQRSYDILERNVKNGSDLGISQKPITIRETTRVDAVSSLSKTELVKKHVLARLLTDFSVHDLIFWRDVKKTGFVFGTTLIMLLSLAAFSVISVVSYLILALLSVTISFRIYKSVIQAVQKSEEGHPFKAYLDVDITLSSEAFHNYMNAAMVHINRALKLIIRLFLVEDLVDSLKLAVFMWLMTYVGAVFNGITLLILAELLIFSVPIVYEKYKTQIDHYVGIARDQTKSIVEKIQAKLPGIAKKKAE
Method in brief: as §1

Q: CCn1cc(C(=O)Oc2c(F)c(F)c(F)c(F)c2F)c(=O)c2ccc(C)nc21 [fragment 28, Pentafluorophenyl 1-ethyl-7-methyl-4-oxo-1,4-dihydro-1,8-naphthyridine-3-carboxylate] was tested. Which “isoTOP-ABPP reactivity ratio at lysine O95197_K1022” value did it give?
A: Its value is 1.2.

Q: How did the “isoTOP-ABPP reactivity ratio at lysine O95197_K1022” value turn out when O=C(CCc1cn(-c2ccccc2)nc1-c1ccccc1)Oc1ccc([N+](=O)[O-])cc1[N+](=O)[O-] [fragment 29, 2,4-Dinitrophenyl 3-(1,3-diphenyl-1H-pyrazol-4-yl)propanoate] was run?
A: The value was 6.2.

Q: With O=C(Oc1ccc([N+](=O)[O-])cc1[N+](=O)[O-])C(c1ccccc1)c1ccccc1 [fragment 30, 2,4-Dinitrophenyl 2,2-diphenylacetate] as the compound, how does the “isoTOP-ABPP reactivity ratio at lysine O95197_K1022” value read?
A: The value was 20.0.

Q: For COc1cc(CCC(=O)Oc2ccc([N+](=O)[O-])cc2[N+](=O)[O-])cc(OC)c1OC [fragment 33, 2,4-Dinitrophenyl 3-(3,4,5-trimethoxyphenyl)propanoate], which “isoTOP-ABPP reactivity ratio at lysine O95197_K1022” value is on record?
A: The value was 1.4.

same assay, conditions: 50 uM, in vitro, sol, 231

Q: With O=C(Oc1ccc([N+](=O)[O-])cc1[N+](=O)[O-])c1ccccc1Nc1cccc(C(F)(F)F)c1 [fragment 40, 2,4-Dinitrophenyl 2-((3-(trifluoromethyl)phenyl)amino)benzoate] as the compound, how does the “isoTOP-ABPP ratio (R) at liganded lysine O95197_K1022” value read?
A: The value was 1.7.

Q: Which “isoTOP-ABPP ratio (R) at liganded lysine O95197_K1022” value does the source give for CC(C)(C)OC(=O)NCCCC(=O)Oc1ccc([N+](=O)[O-])cc1[N+](=O)[O-] [fragment 41, 2,4-Dinitrophenyl 4-((tert-butoxycarbonyl)amino)butanoate] here?
A: Its value is 1.6.

Q: O=C(Oc1ccc([N+](=O)[O-])cc1[N+](=O)[O-])C(c1ccccc1)(c1ccccc1)c1ccccc1 [fragment 42, 2,4-Dinitrophenyl 2,2,2-triphenylacetate] was tested. Which “isoTOP-ABPP ratio (R) at liganded lysine O95197_K1022” value did it give?
A: Its value is 1.1.
